Target: T1, CHIP (Homo sapiens, UniProt Q9UNE7)
T1 construct: gene STUB1; commercial human recombinant CHIP (OriGene)
T1 sequence (Q9UNE7 1-303): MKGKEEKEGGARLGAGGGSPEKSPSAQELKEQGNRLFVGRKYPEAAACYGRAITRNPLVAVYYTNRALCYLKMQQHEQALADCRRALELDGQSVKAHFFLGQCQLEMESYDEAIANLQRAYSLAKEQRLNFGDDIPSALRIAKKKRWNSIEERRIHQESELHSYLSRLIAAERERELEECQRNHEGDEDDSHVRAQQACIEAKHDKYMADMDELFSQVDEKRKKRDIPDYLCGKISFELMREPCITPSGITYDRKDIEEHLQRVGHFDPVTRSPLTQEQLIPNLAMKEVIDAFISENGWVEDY
Assay: microscale thermophoresis, Monolith NT.[…], single-site fit
Assay type: binding

- Kd: 1830 nM
SMILES: C=CC(=O)Nc1ccc(CN2C(=O)N(c3cc(OC)cc(OC)c3)Cc3cnc(Nc4ccc(N5CCN(C)CC5)cc4)nc32)cc1 [FIIN-2]
